Measured values: paper PMC10893631, “Receptor-based pharmacophore modeling, molecular docking, synthesis and biological evaluation of novel VEGFR-2, FGFR-1, and BRAF multi-kinase inhibitors” (BMC Chemistry, 2024)
Where two headings read alike, the source gives them in different places.

Key:
Assay type in all cases: cell-based, human
SK-OV-3 = test: NCI SRB growth inhibition (single dose 10 µM / five-dose); settings: for GI50: SK-OV-3, Ovarian cancer, five-dose
Outline: (§1)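 TCA fixation ends the assay for adherent lines; unbound SRB is rinsed off five times with 1% acetic acid. Drug is added from a DMSO concentrate at 400× the maximum final concentration, made up to 2× in gentamicin-containing medium, then halved on addition to wells.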

NCI-H322M = test: as above; settings: for GI50: NCI-H322M, Non-small cell lung cancer, five-dose
Outline: as §1

COLO 205 = test: as above; settings: for GI50: COLO 205, Colon cancer, five-dose
Outline: as §1

NCI-H460 = test: as above; settings: for GI50: NCI-H460, Non-small cell lung cancer, five-dose
Outline: as §1

PC-3 = test: as above
Outline: as §1

UACC-62 = test: as above; settings: for GI50: UACC-62, Melanoma, five-dose
Outline: as §1

HCT-15 = test: as above; settings: for GI50: HCT-15, Colon cancer, five-dose
Outline: as §1

NCI-H23 = test: as above; settings: for GI50: NCI-H23, Non-small cell lung cancer, five-dose
Outline: as §1

HL-60(TB) = test: as above; settings: for GI50: HL-60(TB), Leukemia, five-dose
Outline: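 After a 24 h pre-incubation, cells received drug at five serially diluted concentrations; two untreated plates per line were TCA-fixed at drug addition as Tz. Adherent plates were fixed with cold TCA, stained with SRB and washed with 1% acetic acid.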

SN12C = test: as above; settings: SN12C, Renal cancer, five-dose
Outline: as §1

T-47D = test: as above; settings: for GI50: T-47D, Breast cancer, five-dose
Outline: as §1

NCI-H522 = test: as above; settings: for GI50: NCI-H522, Non-small cell lung cancer, five-dose
Outline: as §1

HOP-62 = test: as above; settings: for GI50: HOP-62, Non-small cell lung cancer, five-dose
Outline: as §1

IGROV1 = test: as above; settings: for GI50: IGROV1, Ovarian cancer, five-dose
Outline: as §1

U251 = test: as above; settings: for GI50: U251, CNS cancer, five-dose
Outline: as §1

UO-31 = test: as above; settings: for GI50: UO-31, Renal cancer, five-dose
Outline: as §1

OVCAR-4 = test: as above; settings: for GI50: OVCAR-4, Ovarian cancer, five-dose
Outline: as §1

OVCAR-8 = test: as above; settings: for GI50: OVCAR-8, Ovarian cancer, five-dose
Outline: as §1

SF-268 = test: as above; settings: for GI50: SF-268, CNS cancer, five-dose
Outline: as §1

KM12 = test: as above; settings: for GI50: KM12, Colon cancer, five-dose
Outline: as §1

MDA-MB-435 = test: as above; settings: for GI50: MDA-MB-435, Melanoma, five-dose
Outline: as §1

OVCAR-3 = test: as above; settings: for GI50: OVCAR-3, Ovarian cancer, five-dose
Outline: as §1

[1] = tested on: NCI panel of 60 tumor cell lines; test: NCI SRB growth inhibition, whole panel mean (single dose 10 µM / five-dose); settings: for GI50: mean over NCI cancer cell lines, five-dose
Outline: as §1

## COc1cc(C=NNC(=O)c2ccc3[nH]c(-c4ccc(Cl)cc4)nc3c2)cc(OC)c1OC [8u, 2-(4-Chlorophenyl)-N'-(3,4,5-trimethoxybenzylidene)-1H-benzo[d]imidazole-5-carbohydrazide]
SK-OV-3; Homo sapiens, SK-OV-3 (Ovarian cancer), 10 µM, read-out: GI%
  inhibition at 10 µM: > 100%
SK-OV-3; Homo sapiens
  GI50: 15 µM
NCI-H322M; Homo sapiens, NCI-H322M (Non-small cell lung cancer), 10 µM, read-out: GI%
  inhibition at 10 µM: 96.1%
NCI-H322M; Homo sapiens
  GI50: 8.29 µM
COLO 205; Homo sapiens, COLO 205 (Colon cancer), 10 µM, read-out: GI%
  inhibition at 10 µM: > 100%
COLO 205; Homo sapiens
  GI50: 2.84 µM
NCI-H460; Homo sapiens, NCI-H460 (Non-small cell lung cancer), 10 µM, read-out: GI%
  inhibition at 10 µM: > 100%
NCI-H460; Homo sapiens
  GI50: 3.19 µM
PC-3; Homo sapiens, PC-3 (Prostate cancer), 10 µM, read-out: GI%
  inhibition at 10 µM: > 100%
PC-3; Homo sapiens, PC-3, Prostate cancer, five-dose
  GI50: 5.73 µM
UACC-62; Homo sapiens, UACC-62 (Melanoma), 10 µM, read-out: GI%
  inhibition at 10 µM: > 100%
UACC-62; Homo sapiens
  GI50: 1.24 µM
HCT-15; Homo sapiens, HCT-15 (Colon cancer), 10 µM, read-out: GI%
  inhibition at 10 µM: 44.3%
HCT-15; Homo sapiens
  GI50: 73 µM
NCI-H23; Homo sapiens, NCI-H23 (Non-small cell lung cancer), 10 µM, read-out: GI%
  inhibition at 10 µM: > 100%
NCI-H23; Homo sapiens
  GI50: 4.72 µM
HL-60(TB); Homo sapiens, HL-60(TB) (Leukemia), 10 µM, read-out: GI%
  inhibition at 10 µM: 67.8%
HL-60(TB); Homo sapiens
  GI50: 3.9 µM
SN12C; Homo sapiens
  GI50: 3.22 µM
T-47D; Homo sapiens, T47D, T-47D (Breast cancer), 10 µM, read-out: GI%
  inhibition at 10 µM: > 100%
T-47D; Homo sapiens, T47D
  GI50: 3.48 µM
NCI-H522; Homo sapiens, NCI-H522 (Non-small cell lung cancer), 10 µM, read-out: GI%
  inhibition at 10 µM: > 100%
NCI-H522; Homo sapiens
  GI50: 4.9 µM
HOP-62; Homo sapiens, HOP-62 (Non-small cell lung cancer), 10 µM, read-out: GI%
  inhibition at 10 µM: > 100%
HOP-62; Homo sapiens
  GI50: 4.68 µM
IGROV1; Homo sapiens, IGROV-1, IGROV1 (Ovarian cancer), 10 µM, read-out: GI%
  inhibition at 10 µM: 92.4%
IGROV1; Homo sapiens, IGROV-1
  GI50: 11 µM
U251; Homo sapiens, U-251, U251 (CNS cancer), 10 µM, read-out: GI%
  inhibition at 10 µM: > 100%
U251; Homo sapiens, U-251
  GI50: 2.59 µM
UO-31; Homo sapiens, UO-31 (Renal cancer), 10 µM, read-out: GI%
  inhibition at 10 µM: 41.1%
UO-31; Homo sapiens
  GI50: > 100 µM
OVCAR-4; Homo sapiens, OVCAR-4 (Ovarian cancer), 10 µM, read-out: GI%
  inhibition at 10 µM: > 100%
OVCAR-4; Homo sapiens
  GI50: 2.35 µM
OVCAR-8; Homo sapiens, OVCAR-8 (Ovarian cancer), 10 µM, read-out: GI%
  inhibition at 10 µM: > 100%
OVCAR-8; Homo sapiens
  GI50: 3.87 µM
SF-268; Homo sapiens, SF-268 (CNS cancer), 10 µM, read-out: GI%
  inhibition at 10 µM: > 100%
SF-268; Homo sapiens
  GI50: 4.4 µM
KM12; Homo sapiens, KM12 (Colon cancer), 10 µM, read-out: GI%
  inhibition at 10 µM: > 100%
KM12; Homo sapiens
  GI50: 4.5 µM
MDA-MB-435; Homo sapiens, MDA-MB-435 (Melanoma), 10 µM, read-out: GI%
  inhibition at 10 µM: > 100%
MDA-MB-435; Homo sapiens
  GI50: 4.13 µM
OVCAR-3; Homo sapiens, OVCAR-3 (Ovarian cancer), 10 µM, read-out: GI%
  inhibition at 10 µM: > 100%
OVCAR-3; Homo sapiens
  GI50: 2.28 µM
[1]; Homo sapiens, 10 µM, mean over NCI 60 cell lines, > 100% = lethal effect, read-out: mean growth inhibition % (GI%)
  inhibition at 10 µM: > 100%
[1]; Homo sapiens
  GI50: 7.98 µM
[1]; Homo sapiens, mean over NCI panel of 60 tumor cell lines, 10 µM, read-out: Mean growth inhibition %
  inhibition at 10 µM: > 100%

## N'-(2-Hydroxybenzylidene)-2-phenyl-1H-benzo[d]imidazole-5-carbohydrazide [8a]
SK-OV-3; SK-OV-3 (Ovarian cancer), 10 µM
  GI%: L (GI% > 100)
SK-OV-3
  GI50: 2.62 µM
NCI-H322M; NCI-H322M (Non-small cell lung cancer), 10 µM
  GI%: 94.14%
NCI-H322M
  GI50: 2.13 µM
COLO 205; COLO 205 (Colon cancer), 10 µM
  GI%: L (GI% > 100)
COLO 205
  GI50: 1.97 µM
NCI-H460; NCI-H460 (Non-small cell lung cancer), 10 µM
  GI%: L (GI% > 100)
NCI-H460
  GI50: 2.37 µM
PC-3; PC-3 (Prostate cancer), 10 µM
  GI%: 90.74%
UACC-62; UACC-62 (Melanoma), 10 µM
  GI%: 75.88%
UACC-62
  GI50: 3.66 µM
HCT-15; HCT-15 (Colon cancer), 10 µM
  GI%: 94.00%
HCT-15
  GI50: 1.07 µM
NCI-H23; NCI-H23 (Non-small cell lung cancer), 10 µM
  GI%: 83.12%
NCI-H23
  GI50: 3.31 µM
HL-60(TB); HL-60(TB) (Leukemia), 10 µM
  GI%: 95.58%
HL-60(TB)
  GI50: 3.08 µM
SN12C
  GI50: 4.67 µM
T-47D; T-47D (Breast cancer), 10 µM
  GI%: 93.65%
T-47D
  GI50: 3.38 µM
NCI-H522; NCI-H522 (Non-small cell lung cancer), 10 µM
  GI%: L (GI% > 100)
NCI-H522
  GI50: 1.87 µM
HOP-62; HOP-62 (Non-small cell lung cancer), 10 µM
  GI%: L (GI% > 100)
HOP-62
  GI50: 1.47 µM
IGROV1; IGROV1 (Ovarian cancer), 10 µM
  GI%: 82.83%
IGROV1
  GI50: 3.9 µM
U251; U251 (CNS cancer), 10 µM
  GI%: L (GI% > 100)
U251
  GI50: 2.11 µM
UO-31; UO-31 (Renal cancer), 10 µM
  GI%: 86.22%
UO-31
  GI50: 0.6 µM
OVCAR-4; OVCAR-4 (Ovarian cancer), 10 µM
  GI%: 94.42%
OVCAR-4
  GI50: 2.24 µM
OVCAR-8; OVCAR-8 (Ovarian cancer), 10 µM
  GI%: L (GI% > 100)
OVCAR-8
  GI50: 2.49 µM
SF-268; SF-268 (CNS cancer), 10 µM
  GI%: L (GI% > 100)
SF-268
  GI50: 2.78 µM
KM12; KM12 (Colon cancer), 10 µM
  GI%: 84.00%
KM12
  GI50: 3.72 µM
MDA-MB-435; MDA-MB-435 (Melanoma), 10 µM
  GI%: 63.10%
MDA-MB-435
  GI50: 5.77 µM
OVCAR-3; OVCAR-3 (Ovarian cancer), 10 µM
  GI%: L (GI% > 100)
OVCAR-3
  GI50: 1.94 µM
[1]; 10 µM, mean over NCI 60 cell lines, > 100% = lethal effect
  mean growth inhibition % (GI%): 97.73%
[1]
  GI50: 3 µM
[1]; mean over NCI panel of 60 tumor cell lines, 10 µM
  Mean growth inhibition %: 97.73%
